Reference: paper PMC7157554, “Anti-Trypanosomal Proteasome Inhibitors Cure Hemolymphatic and Meningoencephalic Murine Infection Models of African Trypanosomiasis” (Tropical Medicine and Infectious Disease, 2020)
Read-outs that look alike come from different tables or passages of the source.

Experiments:
[1] = tested on: T. b. gambiense; experiment: Growth inhibition of T. b. gambiense strains; type: cell-based; conditions: Trypanosoma brucei, mean ± SD
[2] = tested on: T. b. rhodesiense; experiment: Growth inhibition of T. b. rhodesiense strains; type: cell-based; conditions: Trypanosoma brucei, mean ± SD
[3] = tested on: T. b. brucei; experiment: Growth inhibition of T. b. brucei strains BS221, BS221 (P2 KO), STIB950; type: cell-based; conditions: Trypanosoma brucei, mean ± SD
Method: The T. b. brucei strain Lister 427 (bloodstream form) parasites were continuously grown in complete HMI-9 medium supplemented with 10% Serum Plus and 10% heat-inactivated fetal bovine serum (FBS). All other parasite strains were cultured as described elsewhere.
For determination of 50% growth inhibition, all compounds were dissolved in DMSO, and 200 nL of threefold serially diluted compounds were added into solid-bottom 384-well white plates (Greiner Bio-One, Kremsmunster, Austria) by an Echo 555 acoustic liquid-handling system. Forty microliters of 10^4 cells/mL of T. b. brucei parasites was added into each well, and the plates were incubated in a 5% CO2 incubator at 37 °C for 48 h. Viability of parasites were determined by measuring intracellular ATP levels, using CellTiter-Glo (CTG) luminescent cell viability reagent (Promega, Madison, Wisconsin WI, USA). The EC50 values were determined by using GraphPad Prism software. Growth inhibition assays for all clinical isolates were carried out as described earlier. All experiments had two technical replicates and three biological replicates. […]

[4] = tested on: T. brucei PSMB4^WT; experiment: Growth inhibition of T. brucei expressing wild-type 20S proteasome β4 subunit; type: cell-based; conditions: Trypanosoma brucei, read-out: T. brucei PSMB4^WT EC50
Method: (§1) For determination of 50% growth inhibition, all compounds were dissolved in DMSO, and 200 nL of threefold serially diluted compounds were added into solid-bottom 384-well white plates (Greiner Bio-One, Kremsmunster, Austria) by an Echo 555 acoustic liquid-handling system. Forty microliters of 10^4 cells/mL of T. b. brucei parasites was added into each well, and the plates were incubated in a 5% CO2 incubator at 37 °C for 48 h. Viability of parasites were determined by measuring intracellular ATP levels, using CellTiter-Glo (CTG) luminescent cell viability reagent (Promega, Madison, Wisconsin WI, USA). The EC50 values were determined by using GraphPad Prism software. Growth inhibition assays for all clinical isolates were carried out as described earlier. All experiments had two technical replicates and three biological replicates. Appropriate statistical tests were used for evaluating significance, and mean ± SEM is represented in the tables.

[5] = tested on: T. brucei PSMB4^F24L; experiment: Growth inhibition of T. brucei expressing F24L mutant 20S proteasome β4 subunit; type: cell-based, Trypanosoma brucei
Method: as §1

[6] = stage 2 HAT mouse model; cited from earlier work
[7] = tested on: T. b. brucei (GVR35-VSL2); experiment: Meningoencephalic mouse model (stage 2 HAT efficacy model, GVR35) with bioluminescence imaging; type: in vivo
Method: The GVR35 mouse CNS model mimics the second (meningoencephalic) stage of African trypanosomiasis. Female CD1 mice (~8 weeks old, from Charles River) were injected intraperitoneally (i.p.) with 3 × 10^4 T. b. brucei (GVR35-VSL2) bloodstream-form parasites. As controls, a group of three untreated mice and another group of three mice treated with diminazene aceturate (DA) were included. […] Mice treated with DA usually relapse after 42 days post-infection. […]
Blood parasitemia was quantified weekly from day 21/22, by microscopy of blood from the tail vein. Mice were imaged for bioluminescence using an in vivo imaging system (IVIS) prior to treatment on day 21/22, and weekly after treatment, as described previously. Briefly, mice, in groups of three, were injected i.p. with 150 mg of D-luciferin (Promega) per kilogram body weight in PBS and imaged after 10 min, using an IVIS Spectrum (PerkinElmer, Waltham, Massachusetts MA, USA). Living Image Software (PerkinElmer) was used for acquisition and analysis of bioluminescence imaging data. Bioluminescence in the same rectangular region of interest (ROI) on whole-body mouse images was quantified and is shown in total flux (photons per second). Images were cropped to the ROIs and composites of images from representative mice are shown. Uncured mice were euthanized within 1 or 2 days of parasite detection in the blood. Cured mice were euthanized between day 92 and 101 post-infection. All the results from the individual experiments were reported as number of mice cured over total number of mice treated. A Kaplan–Meier plot was used for representing the number of mice cured at different treatment doses.

Question: What does the source list for N=C(N)c1ccc(OCCCCCOc2ccc(C(=N)N)cc2)cc1 [Pentamidine, reference compound]?
Answer: EC50 ([1]; GAMBIENSE / STIB930, strain STIB930, read-out: T. b. gambiense EC50): 1.4 ± 0.9 nM; EC50 ([1]; GAMBIENSE, strain K048, read-out: T. b. gambiense EC50): 33.9 ± 16 nM; EC50 ([1]; GAMBIENSE, strain R130, read-out: T. b. gambiense EC50): 13.5 ± 4 nM; EC50 ([2]; RHODESIENSE / STIB900, strain STIB900 Mel^R (melarsoprol-resistant), read-out: T. b. rhodesiense EC50): 217 ± 86 nM; EC50 ([2]; RHODESIENSE / STIB900, strain STIB900 Pent^R (pentamidine-resistant), read-out: T. b. rhodesiense EC50): 203 ± 54 nM; EC50 ([3]; STIB950, strain STIB950, read-out: T. b. brucei EC50): 0.5 ± 0.2 nM; EC50 ([3]; strain BS221 (P2 KO), read-out: T. b. brucei EC50): 3.1 ± 0.4 nM; EC50 ([3]; strain BS221, read-out: T. b. brucei EC50): 0.3 ± 0.1 nM

Question: With CC(C)C[C@H](NC(=O)[C@H](Cc1ccccc1)NC(=O)c1cnccn1)B(O)O [Bortezomib, reference compound] as the molecule, how does the EC50 [4] read?
Answer: The EC50 was 0.94 ± 0.05 nM.

Question: What about the “Shift in growth inhibition concentration, F24L mutant vs wild-type” value [5] of the same molecule?
Answer: The value was “equipotent”.

Question: What about the EC50 ([5]; Trypanosoma brucei, read-out: T. brucei PSMB4^F24L EC50) of the same molecule?
Answer: Its EC50 is 1.1 ± 0.26 nM.

Question: What does the source list for Nc1nc(N)nc(Nc2ccc([As]3SCC(CO)S3)cc2)n1 (stereo not shown) [Melarsoprol, reference compound]?
Answer: EC50 ([1]; GAMBIENSE / STIB930, read-out: T. b. gambiense EC50, strain STIB930): 7.1 ± 2.7 nM; EC50 ([1]; GAMBIENSE, read-out: T. b. gambiense EC50, strain K048): 10.2 ± 1.9 nM; EC50 ([1]; GAMBIENSE, read-out: T. b. gambiense EC50, strain R130): 7.7 ± 3.1 nM; EC50 ([2]; RHODESIENSE / STIB900, read-out: T. b. rhodesiense EC50, strain STIB900): 3.9 ± 2 nM; EC50 ([2]; RHODESIENSE / STIB900, read-out: T. b. rhodesiense EC50, strain STIB900 Mel^R (melarsoprol-resistant)): 95.5 ± 24 nM; EC50 ([2]; RHODESIENSE / STIB900, read-out: T. b. rhodesiense EC50, strain STIB900 Pent^R (pentamidine-resistant)): 46.8 ± 19 nM; EC50 ([3]; STIB950, read-out: T. b. brucei EC50, strain STIB950): 16.9 ± 8.8 nM; EC50 ([3]; read-out: T. b. brucei EC50, strain BS221 (P2 KO)): 37.7 ± 14.8 nM; EC50 ([3]; read-out: T. b. brucei EC50, strain BS221): 4.7 ± 1.8 nM

Question: With CSc1ccc(OCc2ncc([N+](=O)[O-])n2C)cc1 [fexinidazole] as the molecule, how does the Curative dose [6] read?
Answer: The Curative dose was 200 mg/kg.

Question: Which results are given for N=C(N)c1ccc(/N=N/Nc2ccc(C(=N)N)cc2)cc1 [Diminazene, diminazene aceturate, reference compound]?
Answer: % Cured ([7]; 40 mg/kg QD): 0%; Mean Day of Relapse ([7]; 40 mg/kg QD): 42 days post infection; Mice Cured/Total ([7]; 40 mg/kg QD (control compound lacking brain penetration)): 0/3

Question: Which Curative dose [6] does the source give for CC1(C)OB(O)c2cc(NC(=O)c3ccc(F)cc3C(F)(F)F)ccc21 [acoziborole] here?
Answer: The Curative dose was 25 mg/kg.
